Where a SMILES comes first, the peptide text is derived from it. The star is where a group is joined. X6 = O=C(/C=C\c1ccc([N+](=O)[O-])cc1)*; X15 = O=C(/C=C\c1ccc(C(F)(F)F)cc1)*; X30 = O=C(CCc1ccc(C(F)(F)F)cc1)*; X21 = O=C(/C=C\c1ccc(Br)cc1)*; Boc = CC(C)(C)OC(=O)*
What follows are compounds tested against Gastrin/cholecystokinin type B receptor (Cavia porcellus) (assay: Inhibition of specific binding of [125I]BH-CCK-8 in guinea pig cortex).
CC(C)(C)OC(=O)N[C@@H](Cc1c[nH]c2ccccc12)C(=O)N[C@@H](CCCCNC(=O)/C=C\c1ccc([N+](=O)[O-])cc1)C(=O)N[C@@H](CC(=O)O)C(=O)N[C@@H](Cc1ccccc1)C(N)=O [3-{2-[2-tert-Butoxycarbonylamino-3-(1H-indol-3-yl)-propionylamino]-6-[3-(4-nitro-phenyl)-acryloylamino]-hexanoylamino}-N-(1-carbamoyl-2-phenyl-ethyl)-succinamic acid; hydrate] (Boc-WK(X6)DF-NH2) was tested, and the IC50 was 4.4 µM.
In the case of CC(C)(C)OC(=O)N[C@@H](Cc1c[nH]c2ccccc12)C(=O)N[C@@H](CCCCNC(=O)/C=C\c1ccc(C(F)(F)F)cc1)C(=O)N[C@@H](CC(=O)O)C(=O)N[C@@H](Cc1ccccc1)C(N)=O [3-{2-[2-tert-Butoxycarbonylamino-3-(1H-indol-3-yl)-propionylamino]-6-[3-(4-trifluoromethyl-phenyl)-acryloylamino]-hexanoylamino}-N-(1-carbamoyl-2-phenyl-ethyl)-succinamic acid; hydrate] (Boc-WK(X15)DF-NH2), the IC50 is reported as 5.3 µM.
For CC(C)(C)OC(=O)N[C@@H](Cc1c[nH]c2ccccc12)C(=O)N[C@@H](CCCCNC(=O)CCc1ccc(C(F)(F)F)cc1)C(=O)N[C@@H](CC(=O)O)C(=O)N[C@@H](Cc1ccccc1)C(N)=O [3-{2-[2-tert-Butoxycarbonylamino-3-(1H-indol-3-yl)-propionylamino]-6-[3-(4-trifluoromethyl-phenyl)-propionylamino]-hexanoylamino}-N-(1-carbamoyl-2-phenyl-ethyl)-succinamic acid; hydrate] (Boc-WK(X30)DF-NH2), the IC50 was 19 µM.
For CC(C)(C)OC(=O)N[C@@H](Cc1c[nH]c2ccccc12)C(=O)N[C@@H](CCCCNC(=O)/C=C\c1ccc(Br)cc1)C(=O)N[C@@H](CC(=O)O)C(=O)N[C@@H](Cc1ccccc1)C(N)=O [3-{6-[3-(4-Bromo-phenyl)-acryloylamino]-2-[2-tert-butoxycarbonylamino-3-(1H-indol-3-yl)-propionylamino]-hexanoylamino}-N-(1-carbamoyl-2-phenyl-ethyl)-succinamic acid; hydrate.NH4OH] (Boc-WK(X21)DF-NH2), the IC50 was 5.1 µM.
